Data from patent US20020115212A1, “Enchanced PKR expression and cytokine production” (priority 2000, published 2002).

Columns and labels:
[1] = test system: IFN-alpha production in Namalwa PKR++41.027 and WT Namalwa cells; assay: IFN-alpha production (ELISA) after PMA priming and poly I:C induction; format: cell-based, human; settings: 20 nM PMA 24 hr, 200 μg/mL poly I:C plus 10 μg/mL DEAE Dextran, 72 hr
Procedure: Cells from individual subclones of Namalwa PKR++41.027 cells and WT Namalwa cells were pretreated with 20 nM phorbol myristate acetate at a cell density 5.0×10^5 cells/ml, in 6 well plates for 24 hrs followed by treatment with 500 HAU/ml Sendai virus or 200 μg/mL poly I:C plus 10 μg/mL DEAE Dextran for an additional 72 hr to induce IFN expression. Culture supernatants from the Sendai virus-treated cells were removed at 24 hr and 48 hr post-induction and supernatants from the Poly I:C treated cells were removed at 72 hr. IFN-alpha production was measured in these cell culture supernates using ELISA (Human Interferon Alpha Multi-Species ELISA Kit obtained from PBL).
FIG. 5 illustrates IFN-alpha production was enhanced following both Sendai virus and PolyI:C induction in Namalwa PKR++41.027 cells relative to IFN-alpha production by wild type Namalwa cells as shown in FIG. 5.

[2] = test system: proinflammatory cytokines; assay: Induction of other proinflammatory cytokines by virus or poly I:C in the presence of 2-aminopurine; format: cell-based; settings: results not shown
PKR = PKR (Homo sapiens, UniProt P19525); settings: stated as known; cited from earlier work
PKR, sequence (P19525 whole entry): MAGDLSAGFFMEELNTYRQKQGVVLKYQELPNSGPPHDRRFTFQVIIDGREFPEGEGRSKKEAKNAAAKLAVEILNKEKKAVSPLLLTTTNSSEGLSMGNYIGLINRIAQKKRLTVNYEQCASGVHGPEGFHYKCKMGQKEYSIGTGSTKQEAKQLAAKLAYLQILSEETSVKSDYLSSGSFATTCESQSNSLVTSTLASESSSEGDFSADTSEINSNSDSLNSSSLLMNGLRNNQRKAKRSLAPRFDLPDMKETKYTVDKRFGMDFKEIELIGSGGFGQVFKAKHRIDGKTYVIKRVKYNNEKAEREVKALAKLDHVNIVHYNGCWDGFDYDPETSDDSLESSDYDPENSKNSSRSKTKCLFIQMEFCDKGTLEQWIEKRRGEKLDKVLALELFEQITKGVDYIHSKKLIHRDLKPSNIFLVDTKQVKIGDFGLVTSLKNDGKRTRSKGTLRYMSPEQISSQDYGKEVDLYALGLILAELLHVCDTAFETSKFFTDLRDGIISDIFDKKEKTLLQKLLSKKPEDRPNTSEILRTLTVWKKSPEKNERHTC

[3] = test system: IFN-alpha production in Namalwa PKR++41.027 and WT Namalwa cells; assay: IFN-alpha production (ELISA) after PMA priming and Sendai virus or poly I:C induction in the presence of 2-aminopurine; format: cell-based, human; settings: 5 mM 2-aminopurine, 20 nM PMA 24 hr, Namalwa PKR++41.027 and WT cells
Procedure: Parallel experiments were performed on duplicate cultures of the individual subclones of Namalwa PKR++41.027 cells and WT Namalwa cells. These cultures were also pretreated with 20 nM phorbol myristate acetate at a cell density 5.0×10^5 cells/ml, in 6 well plates for 24 hr followed by treatment with 500 HAU/ml Sendai virus or poly I:C (200 μg/ml) plus 10 μg/ml DEAE Dextran. In addition these cultures were also treated with the PKR inhibitor 5 mM 2-aminopurine (2AP; obtained from Aldrich Chemical Company). Culture supernatants from the Sendai virus-induced cells were removed at 24 hr, post-induction and culture supernatants from the Poly I:C-induced cells were removed at 72 hr and evaluated for IFN alpha production using ELISA (PBL Catalogue No. 41105 Human Interferon Alpha Multi-Species ELISA Kit).

poly I:C
IFN-alpha induction in Namalwa PKR++41.027 cells [1]: capable of inducing IFN
IFN-alpha induction in parental wild type Namalwa cells [1]: absence of detectable IFN-alpha induction

Nc1ncc2[nH]cnc2n1 [2-aminopurine]
induction of other proinflammatory cytokines by virus or poly I:C [2]: inhibits
PKR kinase activity (PKR): known inhibitor
IFN-alpha production following Sendai virus induction ([3]; 500 HAU/ml Sendai virus, supernatant at 24 hr): decreased
IFN-alpha production following poly I:C induction ([3]; poly I:C 200 μg/ml plus 10 μg/ml DEAE Dextran, supernatant at 72 hr): decreased
